Results as given in article PMC3003687, “α-Galactosylceramide Analogs with Weak Agonist Activity for Human iNKT Cells Define New Candidate Anti-Inflammatory Agents” (PLoS ONE, 2010).

Tests used:
human iNKT cell clones = test: Cytokine ELISA of human iNKT cell clones stimulated with glycolipid-pulsed CD1d-transfected HeLa cells; assay type: cell-based
Method: Capture ELISA assays were used for measurement of cytokine responses of human iNKT cells to αGalCer analogs. One day prior to the experiment, CD1d transfected HeLa cells were plated at 25×10^3 cells/well in 100 µL of medium in flat-bottom 96 well plates. Glycolipids were then added in 100 µL of medium to give final concentrations ranging from 0.05 to 10^4 nM. The APCs were incubated for approximately 18 hours with the glycolipids and then irradiated (10,000 Rad) and washed twice with PBS prior to addition of 25×10^3 iNKT cells well in 300 µL. Supernatants were harvested after 24 hours of co-culture and stored frozen at -20°C. After thawing, aliquots of the supernatants were assayed for specific cytokines by ELISA using capture and biotin-labeled detection antibody pairs specific for GM-CSF, IL-2, IL-4, IL-12p70 and IL-13 (all obtained from BD Biosciences), IFNγ (Thermo-Scientific) or IL-18 (MBL). Specific signals were developed using HRP- conjugated streptavidin (BD Biosciences) and Turbo TMB substrate (Thermo-Scientific). Supernatants were tested pure and/or diluted to give values within a quantitative linear standard curve generated with recombinant cytokines. Curves of dose-dependent cytokine responses and graphs were plotted using the Graphpad Prism Software. EC50 values were calculated using the function log (agonist) response with variable slope, and statistical analyses were carried out using the same software. To calculate concentration-dependent cytokine ratios, IL-4/IFNγ and IL-13/IFNγ ratios were calculated using cytokine values from which background levels (i.e. levels in cultures receiving DMSO vehicle alone) were subtracted. Ratios were calculated by dividing IL-4 or IL-13 concentrations in pg/mL by IFNγ concentration in ng/mL.

Human iNKT TCRs = Human iNKT TCRs (Homo sapiens, UniProt A0A075B6N4+A0A0B4J240+P15813); test: Equilibrium binding of analog-loaded hCD1d tetramers to iNKT cell clones
Text: For flow cytometric analysis, 6B11 (Vα24Jα18 specific) and mAbs specific for human CD3, CD4, CD8α, CD19, CD40L (CD154), CD56, CD69, GM-CSF & IFNγ were obtained from BD Biosciences. IL-4 and IL-13 specific mAbs were from Biolegend. Vα24 (C15) and Vβ11 (C21) specific mAb were from Immunotech. For antibody blocking in culture assays, non-specific isotype matched control, IL-2, IFNγ, IL-12p70 and CD40L specific mAbs without preservatives were obtained from BD Biosciences and IL-18 specific mAb from Medical & Biological Laboratories (MBL, Nagoya, Japan). Phycoerythrin and allophycocyanin labeled human CD1d tetramers were prepared in our laboratory as previously described. Curves of tetramer equilibrium binding constants and graphs were plotted using the Graphpad Prism Software (Version 5). KD values were calculated using the function non-linear fit (hyperbola, one binding site).
To characterize in more detail the iNKT cell TCR recognition of αGalCer analogs presented by human CD1d, we generated soluble and fluorescent tetrameric hCD1d molecules loaded with each of the glycolipid analogs. […] This was similar to the previously reported failure of mouse CD1d tetramer loaded with lysosulfatide to bind detectably to murine non-invariant and sulfatide specific NKT cells, despite a clear reactivity to this lipid upon presentation by APCs; [40]. […] To quantitate their binding avidities to iNKT cell TCRs, we used titration of analog-loaded hCD1d tetramers to determine equilibrium dissociation constants (KD), which are inversely proportional to avidity (Figure 3A and 3B).
Figure 3 Characterization of human iNKT cell TCR interactions with analog-loaded tetramers. (A) iNKT cell clones were stained with titrated amounts of hCD1d tetramers loaded with the indicated glycolipids (abbreviations as in legend to Figure 1), and the measured MFI values are plotted for selected glycolipids. (B) The equilibrium dissociation constants (KD, inversely proportional to TCR avidity) were determined as the concentrations of tetramers required to yield 50% of maximal binding. Data shown were obtained using the CD4^+ iNKT cell clone HDD3, and similar results (not shown) were obtained with a second CD4^+ clone (HDD11) and a CD4^−8^− double negative iNKT cell clone (HDE3). (C) Analysis of iNKT cell clones labeled with 20 nM of hCD1d tetramers which were loaded with variable excesses of analog to constant hCD1d (25 to 1000 fold molar excess of glycolipid to hCD1d protein). The measured MFI values were normalized as the percent of the maximum staining intensity obtained with each analog loaded tetramer. Data presented were generated with HDD3 (CD4+) iNKT cell clone, and similar results (not shown) were obtained with HDE3 (DN) clone.

human iNKT cells = conditions: cited from earlier work

Chain of Human iNKT TCRs (P15813 20-301): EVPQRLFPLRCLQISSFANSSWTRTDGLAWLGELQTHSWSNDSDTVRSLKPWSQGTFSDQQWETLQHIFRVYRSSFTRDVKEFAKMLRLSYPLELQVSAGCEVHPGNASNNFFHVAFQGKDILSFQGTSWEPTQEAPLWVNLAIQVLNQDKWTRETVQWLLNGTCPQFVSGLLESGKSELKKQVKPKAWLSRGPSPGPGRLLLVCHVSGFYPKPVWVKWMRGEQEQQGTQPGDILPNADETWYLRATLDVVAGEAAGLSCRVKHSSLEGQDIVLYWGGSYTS
Chain of Human iNKT TCRs (P01848 whole entry, further chain): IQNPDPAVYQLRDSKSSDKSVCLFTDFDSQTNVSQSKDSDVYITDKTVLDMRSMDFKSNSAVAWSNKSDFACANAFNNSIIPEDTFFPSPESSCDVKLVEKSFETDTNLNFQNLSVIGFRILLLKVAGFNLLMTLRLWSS
Chain of Human iNKT TCRs (A0A0B4J240 22-114): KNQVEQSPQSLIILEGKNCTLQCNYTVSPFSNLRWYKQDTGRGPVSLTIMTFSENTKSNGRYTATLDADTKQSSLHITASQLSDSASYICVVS
Chain of Human iNKT TCRs (P61769 21-119, further chain): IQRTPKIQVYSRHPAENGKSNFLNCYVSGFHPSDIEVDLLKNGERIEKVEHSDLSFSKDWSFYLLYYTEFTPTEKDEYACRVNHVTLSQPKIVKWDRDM
Chain of Human iNKT TCRs (A0A075B6N4 22-114): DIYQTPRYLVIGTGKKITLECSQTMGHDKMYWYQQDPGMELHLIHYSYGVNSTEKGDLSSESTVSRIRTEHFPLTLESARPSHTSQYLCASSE

## CCCCCCCCCCCCCCCCCCCCCCCC(=O)N[C@@H](CO[C@H]1O[C@H](CO)[C@H](O)[C@H](O)[C@H]1O)[C@H](O)[C@H](O)CCCCC [OCH]
Human iNKT cell clones; Homo sapiens, iNKT, HDD3 clone, IL-4 levels did not reach a plateau
  EC50: > 10 µM
Human iNKT cell clones; all clones tested
  induction of IL-4: minimal
Human iNKT cell clones; all iNKT cell clones tested
  concentration required to induce detectable IL-13 production or weak IFNγ secretion: > 10 nM
Human iNKT cell clones; dose range, IFNγ, IL-4, IL-13, clones HDD3, HDD11, HDE3, HDA7
  iNKT cell clone cytokine response / agonist activity: much weaker reactivity
Human iNKT TCRs
  staining of iNKT cell clones by analog-loaded hCD1d tetramers: only a weak staining intensity of a subset of iNKT cell clones tested
Human iNKT cells
  ability to stimulate human iNKT cells: weak or no detectable ability to stimulate human iNKT cells
